Assay results as given in patent US20040133938A1, “Use of lipoic acid in plant culture media” (priority 2002, published 2004).

Test system: MicroTom cotyledon explants
Assay: Transient GUS expression in MicroTom cotyledon explants
Type: cell-based, Lycopersicon esculentum
Details: for % High transient expression / % Low transient expression / % No transient expression: GUS, after 5 days on selection media
Method: Cotyledon explants were isolated from seedlings 7 days after sowing seeds on Davis Germination medium. Cotyledon explants were prepared by bathing them in 6 mL of TXD liquid medium (4.3 g/L MS salts, 2 mL/L Gamborg's B-5 500× salts, 4 mg/L pCPA (p-chlorophenoxyactic acid), 0.005 mg/L kinetin, and 30 g/L sucrose) to prevent desiccation and trimming them at both ends using a #15 feather blade. Immediately after the trimming, the cotyledon explants were gently placed on “feeder plates” containing UC2PC medium (2.2 g/L MS salts, 2.2 mL/L, Gamborg's B-5 500× salts, 0.2 mg/L 2,4-D, 4 mg/L pCPA, 0.1 mg/L kinetin, 30 g/L sucrose, 0.2 g/L potassium phosphate, 10 g/L agar, 8 mL/L acetosyringone (4.91 mg/mL), and 4 mL galacturonic acid (53.05 mg/mL)). The “feeder plates” are made by overlaying 2 mL of tobacco suspension cells and a sterile Whatman filter on the plates containing UC2PC medium. The cotyledon explants were gently poked with a sharp forceps (ASIM5311, Stainless French, made in Switzerland). Usually six to ten pokes were made per explant depending the size of cotyledons. Right after poking, the cotyledons were inoculated with Agrobacterium containing pMON15715 (FIG. 1) by adding 3 mL of the adjusted Agrobacterium solution on top of the cotyledons. The plates were incubated for 10 min at room temperature, and the Agrobacterium solution was aspirated with a sterile pipette. The cotyledons were then co-cultured for 2 days at 23-24° C. under a 16-h photoperiod. The co-culture plates were placed in plastic bags to keep the humidity, which is preferable for MicroTom growth.
Two days after co-cultivation, cotyledons were transferred to shoot induction medium SI-2 (4.3 g/L MS salts, 2 mL/L, Gamborg's B-5 500× salts, 30 g/L sucrose, 10 g/L agar, 500 mg/L carbenicillin, 100 mg/L cefotaxime, 0.1 mg/L IAA, and 2 mg/L zeatin riboside) supplemented with 10 μM of lipoic acid and 100 mg/L kanamycin. Three to four weeks after the induction stage, the cotyledons formed buds or shoots. Cotyledons with buds or shoots were separated by individual event and transferred to, shoot elongation medium E2 (SI-2 medium without IAA), supplemented with 100 mg/L kanamycin for two to four weeks. All culture plates were placed in a culture box, placed inside a plastic bag, and cultured at 23-24° C. under a 16 h photoperiod.
At the same time the tissue browning severity was measured, transient expression of the gus gene was scored. High transient expression was defined as an explant having more than 30% of the pokes that produced GUS blue spots. Low transient expression was defined as an explant having less than 30% of the pokes that produced GUS blue spots about 5 days after culturing on selection medium. Nontransient expression was determined as an explant having no GUS blue spot. With the lipoic acid treatments at the concentrations of 10 and 50 μM, the percentage of explants having high transient expression doubled from 30% (non-lipoic acid treatment) up to 60.9% (Table 2). […] When lipoic acid was used in the selection process at the concentrations of 10, 50 and 100 μM, 100% of explants transiently expressed the GUS gene, but without lipoic acid or lipoic acid at the concentration of 5 μM, 20% and 9.5% of explants had no GUS transient expression.

SMILES: O=C(O)CCCCC1CCSS1 (centres unmarked) [lipoic acid, 1,2-dithiolane-3-pentanoic acid]
- % High transient expression (5 μM lipoic acid): 42.9%
- % Low transient expression (5 μM lipoic acid): 47.6%
- % No transient expression (5 μM lipoic acid): 9.5%
- % High transient expression (10 μM lipoic acid): 60.9%
- % Low transient expression (10 μM lipoic acid): 39.1%
- % No transient expression (10 μM lipoic acid): 0%
- % High transient expression (50 μM lipoic acid): 56.5%
- % Low transient expression (50 μM lipoic acid): 43.5%
- % No transient expression (50 μM lipoic acid): 0%
- % High transient expression (100 μM lipoic acid): 34.8%
- % Low transient expression (100 μM lipoic acid): 65.2%
- % No transient expression (100 μM lipoic acid): 0%
- % of explants that transiently expressed the GUS gene (lipoic acid at 10, 50 and 100 μM in the selection process): 100%
- increase of the percentage of explants having high level of transient expression (summary, MicroTom transformation): 2 fold
